Assay results taken from patent US20240336653A1, “PEPTIDE COMPOUND TARGETING ELASTIN-DERIVED PEPTIDES AND USE THEREOF” (Shenzhen Turier Biotech Co., Ltd., priority 2020, published 2024).
*1 amine or outer side, *2 acyl side, *3 side chain or, on linkers, in order; H or OH if unused. Primed or numbered codes have the meaning given here. Where no end group is shown, it is not given here. [ ]: non-standard residue; d: D form. The star is where a group is joined. C20 diacid = O=C(O)CCCCCCCCCCCCCCCCCCC(=O)*; γGlu = O=C(O)[C@H](CCC(=O)[*:2])N[*:1]; Iva = CC[C@](C)(N)C(=O)O; PEG2′ = not defined here

Legend:
[1] = test system: CCl4 induced hepatic fibrosis; experiment: Carbon tetrachloride (CCl4) induced hepatic fibrosis model in mice; assay type: in vivo, C57BL/6J mice; settings: 100.0 μg/kg intraperitoneal, 3 weeks of administration; for aggregation of inflammatory cells in the liver (HE staining) / hepatic fibrosis of mice: FIG. 2; for expression of Collagen I in the liver (immunohistochemistry): FIG. 3; for collagen deposition in the liver (Sirius red staining): FIG. 4
Protocol: Molding method: 72 male C57BL/6J mice, male, 18-22 g in weight and 8 weeks old, provided by Laboratory Animal Center, Sun Yat-sen University, randomly divided into 12 groups: 1) control group (Oil)+saline, intraperitoneal injection, n=6; 2) model control group (CCl4)+saline, intraperitoneal injection, n=6; administration of CCl4 to mice once every three days for 6 weeks; 3) model administration group (CCl4)+100.0 μg/kg series of compounds (group 10), intraperitoneal injection, n=6/group. The mice in the control group are injected with corn oil at the same volume and frequency according to the administration volume of 20% CCl4 at the weight of 5.0 μL/g. Administration frequency: administration of CCl4 to mice once every three days for 6 weeks. After 3 weeks of administration of CCl4 to mice in the model administration group, peptide compounds 1, 5, 7, 11, 12, 13, 17, 18, 21 and 22 are administered for 3 weeks from the 4th week. CCl4 and Oil are purchased from Shanghai Aladdin Biochemical Technology Co., Ltd.
In the CCl4 induced hepatic fibrosis model, the manifestations are: inflammatory cell infiltration around the central vein area, hydropic degeneration of hepatic cells, and increased accumulation of collagen fibers in the portal area and the hepatic interlobular septum. After three weeks of administration, the mice are treated and sampled. Blood is taken from the retrobulbar vein for detection of serological indicators, and liver tissue is taken for pathological analysis.
(§1) Hematoxylin-eosin (H&E) staining: paraffin embedded tissue sections are taken and baked at 60° C. for 1 h. Dewaxing and hydration: xylene for 20 minutes→xylene for 20 minutes→absolute alcohol for 15 minutes→absolute alcohol for 15 minutes→95% alcohol for 10 minutes→90% alcohol for 5 minutes→80% alcohol for 5 minutes. Staining: hematoxylin for 7 minutes→rinsing with tap water→differentiation with 1% hydrochloric acid alcohol for 1 s→rinsing with tap water→eosin staining for 15 s-20 s→rinsing with tap water. Dehydration and transparency: 75% alcohol for 1 s→85% alcohol for 1 s→95% alcohol for 1 s→100% alcohol for 1 s→xylene for Is→xylene for 1 s. The sections are aired for 30 minutes and sealed with gum.
Sirius red staining: drying and dewaxing; standing for 5.0 minutes in double distilled water; Sirius red staining for 60-80 minutes in a dark room; washing for 5 s with 0.5% glacial acetic acid; dehydration and transparency, sealing and taking photos.
Immunohistochemistry: drying sections, dewaxing, and then soaking in double distilled water for 5 minutes. Antigen retrieval: putting the shelf where pathological sections are placed into a beaker containing citric acid buffer (PH=6.0), and keeping it under high temperature and pressure for 15 minutes; taking out the beaker and letting it stand at room temperature until the temperature drops to the room temperature, then taking out the sections and putting them into 3.0% hydrogen peroxide for 10 minutes to block the endogenous peroxidase activity, and then washing them with PBS for three times, 5 minutes each time; sealing the tissues with 1.0% BSA for 1 h; removing 1.0% BSA, adding Collagen I antibody on the tissue according to the proportion recommended in the Description, and staying overnight at 4° C.; taking out the pathological sections next day, adding the second antibody with horseradish peroxidase after the room temperature is restored, incubating it at 37° C. for 60 minutes, and then use DAB (diaminobenzidine) ([…], USA) to develop color; and re-staining with hematoxylin staining solution, washing with tap water for 5 minutes, differentiating with 1% hydrochloric acid alcohol, then washing with tap water for 5 minutes again, dehydrating, airing, sealing, and taking photos (H&E staining solution and Sirius red staining solution are purchased from Sangon Biotech (Shanghai) Co., Ltd., and Collagen I antibody is purchased from CST Corporation).

MMP9 = experiment: ELISA of MMP9 in serum of mice of the bleomycin model; assay type: in vivo, C57BL/6J mice; settings: BLM mice, 150 μg/kg daily intraperitoneal, 14 days, FIG. 6-A
Protocol: (§2) Molding method: 78 male C57BL/6J mice, 16-18 g in weight and 6-8 weeks old, provided by Laboratory Animal Center, Sun Yat-sen University, randomly divided into 13 groups: 1) normal control group (Normal), n=6; 2) sham-operated saline control group (Saline), n=6; 3) bleomycin model group (BLM), n=6; and 4) model treatment group: administration of 150 μg/kg series compounds to mice, 10 groups in total, n=6/group. On the 7th day after the operation of bleomycin induced pulmonary fibrosis in mice, mice in the model treatment group are treated with drugs (administration frequency: daily administration/150 μg/kg, intraperitoneal injection). Samples are taken 14 days after administration, and pathological observations are recorded.
(§3) The bleomycin (purchased from TCI Shanghai)) induced pulmonary fibrosis model manifests the following pathological features: bronchiectasis, hydropic degeneration of bronchial epithelial cells, obvious edema and widening of alveolar interstitium, and deposition of a large number of fibroblasts and collagen tissue. The alveolar structure almost completely disappears, filled with fibrous connective tissue, and accompanied by inflammatory cell infiltration. After 14 days of administration, the mice in the model treatment group are treated and sampled. Blood is taken from the retrobulbar vein for detection of serological indicators, and […] is taken for pathological analysis.
(§4) The occurrence and development of fibrotic diseases are related to TGF-β and MMP-9 induced EMT process. Matrix metalloproteinases (MMPs) are matrix degrading proteases that degrade all components of extracellular matrix. They participate in the pathophysiological process of pulmonary fibrosis, play an important role in the abnormal remodeling of extracellular matrix and destruction of basement membrane, and promote the recruitment of inflammatory cells and fibroblasts. The increased expression of MMP-9 in pulmonary fibrosis animal models and patients, higher than the normal MMP-9 level, may destroy normal tissue structure and increase the migration of inflammatory cells to the disease site. In order to further explore the inhibitory mechanism of polypeptide drugs on bleomycin induced pulmonary fibrosis, we detect the expression of TGFβ, MMP9 cell factors in serum of mice in each group by ELISA. […] We speculate that its mechanism should be related to TGF-β.

TGF-β = experiment: ELISA of TGFβ in serum of mice of the bleomycin model; assay type: in vivo, C57BL/6J mice; settings: BLM mice, 150 μg/kg daily intraperitoneal, 14 days, FIG. 6-B
Protocol: as §2, §3, §4

[2] = test system: bleomycin induced pulmonary fibrosis; experiment: Bleomycin (BLM) induced pulmonary fibrosis model in mice; assay type: in vivo, C57BL/6J mice; settings: 150 μg/kg daily intraperitoneal, 14 days, FIG. 5; for degree of pulmonary fibrosis (H&E staining and Masson staining): compared with bleomycin control group; for fibronectin in pulmonary parenchyma (α-SMA and Collagen1 immunohistochemistry): compared with bleomycin group
Protocol: as §2, §3
as §1, with “H&E” for “Hematoxylin-eosin (H&E)”, “1 s→xylene” for “Is→xylene”
Masson staining: drying and dewaxing; mordanting; adding celestine blue staining solution for 2-3 min, and washing with water; adding Mayer hematoxylin staining solution and washing with water; differentiating with acid alcohol differentiation liquid for several seconds, and washing with tap water; adding ponceau magenta staining solution and washing with distilled water; treating with phosphomolybdic acid solution; adding aniline blue staining solution for 5 min; treating with weak acid solution for 2 min; dehydration and transparency, airing and sealing with gum.
Immunohistochemistry: drying sections, dewaxing, and then soaking in double distilled water for 5 minutes. […]

LX2 cells = experiment: Activity evaluation in LX2 cell model (α-SMA protein expression); assay type: cell-based, human; settings: 1.0 μM and 10.0 μM, 48 hours incubation, GAPDH internal reference, FIG. 1
Description: In LX2 cell model (which can be directly used as the evaluation model of hepatic fibrosis cells in vitro, because LX2 cells are human liver activated stellate cells. The LX2 cells are purchased from China Center for Type Culture Collection of the Chinese Academy of Sciences, Shanghai, China), the anti-fibrosis activities of peptide compounds 1-25 are preliminarily screened, and the expression of the marker α-SMA protein of myofibroblast activation is detected. The peptide compounds 1-25 is subjected to cell incubation for 48 hours by using two concentrations (1.0 μM and 10.0 μM). The control group is given the same volume of Dulbecco's modified Eagle medium (DMEM) (purchased from Gibco in the United States), and GAPDH (purchased from TransGen Biotech) as the internal reference, α-actin (α-SMA) is a symbolic feature that distinguishes myoblast cells from myofibroblasts.

Substance: (PEG2-PEG2-γGlu-CO(CH2)18CH3)-Val-Iva-Gly-Ser-Pro-Ser-Ala-Gln-Glu-Glu-Ala-Ser-Pro-Ala-NH2 (V[Iva]GSPSAQEEASPA-NH2; not fully specified (N-terminus); printed as (PEG2-PEG2-γGlu-CO(CH2)18CH3)-Val-Iva-Gly-Ser-Pro-Ser-Ala-Gln-Glu-Glu-Ala-Ser-Pro-Ala-NH2) [Compound 13]
- aggregation of inflammatory cells in the liver (HE staining) [1]: significantly improved
- hepatic fibrosis of mice [1]: significantly improved
- expression of Collagen I in the liver (immunohistochemistry) [1]: significant therapeutic improvement
- collagen deposition in the liver (Sirius red staining) [1]: significant therapeutic improvement
- concentration of MMP9 in serum of mice (MMP9): significantly reduce
- concentration of TGF-β in serum of mice (TGF-β): significantly reduce
- degree of pulmonary fibrosis (H&E staining and Masson staining) [2]: significantly reduced
- fibronectin in pulmonary parenchyma (α-SMA and Collagen1 immunohistochemistry) [2]: significantly less than that in bleomycin group
- inhibiting and improving the activity of α-SMA (expression of α-SMA protein) (LX2 cells): better effects on inhibiting and improving the activity of α-SMA

Substance: (PEG2-PEG2-γGlu-CO(CH2)18CO2H)-Val-Iva-Gly-Ser-Pro-Ser-Ala-Gln-Asp-Glu-Ala-Ser-Pro-Ala-NH2 ({C20 diacid-γGlu-PEG2′-PEG2′}-V[Iva]GSPSAQDEASPA-NH2) [Compound 5]
- aggregation of inflammatory cells in the liver (HE staining) [1]: significantly improved
- hepatic fibrosis of mice [1]: significantly improved
- expression of Collagen I in the liver (immunohistochemistry) [1]: significant therapeutic improvement
- collagen deposition in the liver (Sirius red staining) [1]: significant therapeutic improvement
- concentration of MMP9 in serum of mice (MMP9): significantly reduce
- concentration of TGF-β in serum of mice (TGF-β): significantly reduce
- degree of pulmonary fibrosis (H&E staining and Masson staining) [2]: significantly reduced
- fibronectin in pulmonary parenchyma (α-SMA and Collagen1 immunohistochemistry) [2]: significantly less than that in bleomycin group
- inhibiting and improving the activity of α-SMA (expression of α-SMA protein) (LX2 cells): better effects on inhibiting and improving the activity of α-SMA

Substance: (PEG2-PEG2-γGlu-CO(CH2)18CO2H)-Val-Iva-Gly-Ser-Pro-Ser-Ala-Gln-Glu-Glu-Ala-Ser-Pro-Ala-NH2 ({C20 diacid-γGlu-PEG2′-PEG2′}-V[Iva]GSPSAQEEASPA-NH2) [Compound 7]
- aggregation of inflammatory cells in the liver (HE staining) [1]: significantly improved
- hepatic fibrosis of mice [1]: significantly improved
- expression of Collagen I in the liver (immunohistochemistry) [1]: significant therapeutic improvement
- collagen deposition in the liver (Sirius red staining) [1]: significant therapeutic improvement
- concentration of MMP9 in serum of mice (MMP9): significantly reduce
- concentration of TGF-β in serum of mice (TGF-β): significantly reduce
- degree of pulmonary fibrosis (H&E staining and Masson staining) [2]: significantly reduced
- fibronectin in pulmonary parenchyma (α-SMA and Collagen1 immunohistochemistry) [2]: significantly less than that in bleomycin group
- inhibiting and improving the activity of α-SMA (expression of α-SMA protein) (LX2 cells): better effects on inhibiting and improving the activity of α-SMA

Substance: (PEG2-PEG2-γGlu-CO(CH2)18CO2H)-Val-Iva-Gly-Ser-Pro-Ser-Ala-Gln-Glu-Glu-Ala-Ser-Pro-Leu-NH2 ({C20 diacid-γGlu-PEG2′-PEG2′}-V[Iva]GSPSAQEEASPL-NH2) [Compound 11]
- aggregation of inflammatory cells in the liver (HE staining) [1]: significantly improved
- hepatic fibrosis of mice [1]: significantly improved
- expression of Collagen I in the liver (immunohistochemistry) [1]: significant therapeutic improvement
- collagen deposition in the liver (Sirius red staining) [1]: significant therapeutic improvement
- concentration of MMP9 in serum of mice (MMP9): significantly reduce
- concentration of TGF-β in serum of mice (TGF-β): significantly reduce
- degree of pulmonary fibrosis (H&E staining and Masson staining) [2]: significantly reduced
- fibronectin in pulmonary parenchyma (α-SMA and Collagen1 immunohistochemistry) [2]: significantly less than that in bleomycin group
- inhibiting and improving the activity of α-SMA (expression of α-SMA protein) (LX2 cells): better effects on inhibiting and improving the activity of α-SMA

Substance: (PEG2-PEG2-γGlu-CO(CH2)18CO2H)-Val-Val-Gly-Ser-Pro-Ser-Ala-Gln-Asp-Glu-Ala-Ser-Pro-Leu-NH2 ({C20 diacid-γGlu-PEG2′-PEG2′}-VVGSPSAQDEASPL-NH2) [Compound 1]
- aggregation of inflammatory cells in the liver (HE staining) [1]: significantly improved
- hepatic fibrosis of mice [1]: significantly improved
- expression of Collagen I in the liver (immunohistochemistry) [1]: significant therapeutic improvement
- collagen deposition in the liver (Sirius red staining) [1]: significant therapeutic improvement
- concentration of MMP9 in serum of mice (MMP9): significantly reduce
- concentration of TGF-β in serum of mice (TGF-β): significantly reduce
- degree of pulmonary fibrosis (H&E staining and Masson staining) [2]: significantly reduced
- fibronectin in pulmonary parenchyma (α-SMA and Collagen1 immunohistochemistry) [2]: significantly less than that in bleomycin group
- inhibiting and improving the activity of α-SMA (expression of α-SMA protein) (LX2 cells): better effects on inhibiting and improving the activity of α-SMA
